Laboratory results taken from patent publication EP4596561A1, “PHOSPHORUS-CONTAINING COMPOUND, PHARMACEUTICAL COMPOSITION AND USE THEREOF” (Suzhou Genhouse Bio Co., Ltd., priority 2022, dated 2024).

Key:
[1] = molecular target: T1, Cytochrome Oxidase P450 2C19 (Homo sapiens, UniProt P33261); assay: Inhibition of cytochrome oxidase P450; assay type: in vitro ADME; conditions: liver microsomes
T1 construct: a biochemical reaction of prepared liver microsomes supplemented with a redox coenzyme; from tissue; host or cells: liver microsomes
Description: (§1) Efficacy Experimental Example 5: Inhibition of Cytochrome Oxidase P450
(§2) 100 mM K-Buffer: 9.5 mL of stock solution A was mixed with 40.5 mL of stock solution B, the total volume was adjusted to […] with ultrapure water, and the buffer was titrated to pH 7.4 with KOH or H3PO4.
(§3) The test substance powder was prepared into a stock solution at a certain concentration with DMSO or another organic solvent, which was then further diluted with a suitable organic solvent.
(§4) The liver microsomal in vitro incubation system for the CYP450 enzyme metabolism phenotype study was a biochemical reaction of prepared liver microsomes supplemented with a redox coenzyme and an enzyme-specific selective inhibitor under simulated physiological temperature and environment conditions.
(§5) The concentration of the parent drug or a metabolite thereof in the incubation solution was determined by LC-MS/MS.

[2] = molecular target: T2, Cytochrome Oxidase P450 2D6 (Homo sapiens, UniProt P10635); assay: Inhibition of cytochrome oxidase P450; assay type: in vitro ADME; conditions: liver microsomes
T2 construct: a biochemical reaction of prepared liver microsomes supplemented with a redox coenzyme; from tissue; host or cells: liver microsomes
Description: as §1, §2, §3, §4, §5

[3] = molecular target: T3, Cytochrome Oxidase P450 2C9 (Homo sapiens, UniProt P11712); assay: Inhibition of cytochrome oxidase P450; assay type: in vitro ADME; conditions: liver microsomes
T3 construct: a biochemical reaction of prepared liver microsomes supplemented with a redox coenzyme; from tissue; host or cells: liver microsomes
Description: as §1, §2, §3, §4, §5

[4] = molecular target: T4, Cytochrome Oxidase P450 1A2 (Homo sapiens, UniProt P05177); assay: Inhibition of cytochrome oxidase P450; assay type: in vitro ADME; conditions: liver microsomes
T4 construct: a biochemical reaction of prepared liver microsomes supplemented with a redox coenzyme; from tissue; host or cells: liver microsomes
T4 sequence (P05177 1-516): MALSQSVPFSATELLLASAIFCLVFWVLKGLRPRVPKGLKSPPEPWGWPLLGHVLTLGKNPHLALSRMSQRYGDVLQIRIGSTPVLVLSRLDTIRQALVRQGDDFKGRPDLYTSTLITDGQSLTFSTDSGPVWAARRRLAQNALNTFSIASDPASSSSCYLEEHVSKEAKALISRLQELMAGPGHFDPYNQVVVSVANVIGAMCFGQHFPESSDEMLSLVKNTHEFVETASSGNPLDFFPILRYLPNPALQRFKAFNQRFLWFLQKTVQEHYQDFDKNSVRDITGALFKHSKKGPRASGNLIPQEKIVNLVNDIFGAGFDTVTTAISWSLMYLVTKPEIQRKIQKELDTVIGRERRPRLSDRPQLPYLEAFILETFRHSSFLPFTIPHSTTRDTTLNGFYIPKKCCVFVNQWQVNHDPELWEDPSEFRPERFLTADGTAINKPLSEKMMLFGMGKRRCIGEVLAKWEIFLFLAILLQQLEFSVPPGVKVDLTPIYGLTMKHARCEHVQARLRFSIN
Description: as §1, §2, §3, §4, §5

[5] = molecular target: T5, Cytochrome Oxidase P450 3A4-M (Homo sapiens, UniProt P08684); assay: Inhibition of cytochrome oxidase P450; assay type: in vitro ADME; conditions: liver microsomes
T5 construct: a biochemical reaction of prepared liver microsomes supplemented with a redox coenzyme; from tissue; host or cells: liver microsomes
Description: as §1, §2, §3, §4, §5

[6] = system: MSTO-211H (NF2 wide-type); assay: Inhibition of cell proliferation (CellTiter-Lumi); assay type: cell-based; conditions: Homo sapiens, 72 h + another 72 h treatment
Description: NCI-H2052 (NF2 mutant), NCI-H226 (NF2 mutant), NCI-H2452 (NF2 wide-type), NCI-H28 (NF2 wide-type), and MSTO-211H (NF2 wide-type) cells were cultured in RPMI 1640 complete media.
The normally growing cells described above were digested with a trypsin cell-digesting solution, centrifuged, counted, and then plated in a 96-well plate at a density of 1000 cells per well. Administration was performed 24 h after the cell plating. Inhibitors at different concentration gradients were added at 10 µL per well, and three replicate wells were set for each concentration point. The starting concentration was 20 µM and diluted 8 times with a 4-fold gradient. A corresponding negative control group treated with 0.1% DMSO was also set up. After 72 h of drug treatment, the cell culture plate to be tested was taken out of the incubator. The culture medium in the 96-well plate was pipetted, and 190 µL of fresh RPMI 1640 complete medium was added. Another administration was performed, and the cells were cultured for another 72 h. The 96-well plate was taken out and allowed to equilibrate at room temperature for 10 min. The medium in the 96-well plate was pipetted, and 200 µL of CellTiter-Lumi™ luminescent cell viability detection solution (mixed with a medium in a ratio of 1:1) was added. After shaking for two minutes, the mixture was reacted at room temperature for 10 min. Then, 150 µL of liquid was pipetted from the transparent 96-well plate and transferred to a white 96-well plate for chemiluminescence reading. The background value was subtracted from the value for each well to calculate the cell survival rate. Survival rate (%) = […]. Sample is the chemiluminescence of the drug-treated group, and Vehicle is the […] of the DMSO control group. A sigmoidal dose-survival rate curve was plotted using a non-linear regression model in the GraphPad Prism 7.0 software, and the IC50 values or GI50 values were calculated.

MSTO-211H cells = assay: Pharmacodynamic test, MSTO-211H subcutaneous xenograft; assay type: in vivo, nude mice (BALB/c nu/nu); conditions: MSTO-211H xenograft
Description: Healthy female nude mice (BALB/c nu/nu) aged 6-8 weeks were housed in an SPF environment in accordance with animal ethical guidelines. The well-growing 5M MSTO-211H cells were harvested through trypsin digestion, washed in phosphate-buffered saline (PBS), and then resuspended in PBS containing 50% matrigel (BD Biosciences).
Subcutaneous injection was then performed at the dorsolateral sites of the mice, and the tumor volume was measured once every three days thereafter. When the tumor volume reached around 150-200 mm^3, the mice were randomly assigned to different treatment groups. Any one of the compounds described herein was prepared accordingly and administered at an appropriate dose. Finally, the tumor growth in the nude mice was analyzed after 4 to 6 weeks based on the growth of the tumors.

in vivo = conditions: mouse, plasma, po
Description: After adding 5% DMSO, the mixture was vortexed. 15% HS15 was then added, and the mixture was vortexed again. Finally, a 10% aqueous cyclodextrin solution was added, and the resulting mixture was vortexed to prepare the final concentration solution or suspension.

T3 sequence (P11712 whole entry): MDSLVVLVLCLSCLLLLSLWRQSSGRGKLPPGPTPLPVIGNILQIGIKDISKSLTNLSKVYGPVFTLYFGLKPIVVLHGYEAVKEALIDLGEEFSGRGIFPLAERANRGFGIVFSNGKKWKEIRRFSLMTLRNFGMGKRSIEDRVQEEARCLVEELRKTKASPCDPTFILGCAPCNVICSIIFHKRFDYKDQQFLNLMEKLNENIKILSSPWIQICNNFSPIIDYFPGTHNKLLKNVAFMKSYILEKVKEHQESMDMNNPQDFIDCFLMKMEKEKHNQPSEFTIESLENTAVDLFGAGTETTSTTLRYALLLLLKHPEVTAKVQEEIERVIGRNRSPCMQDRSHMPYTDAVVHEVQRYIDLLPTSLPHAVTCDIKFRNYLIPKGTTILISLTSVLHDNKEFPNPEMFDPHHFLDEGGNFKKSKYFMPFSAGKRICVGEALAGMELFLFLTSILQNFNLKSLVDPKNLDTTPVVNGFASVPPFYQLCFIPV
T1 sequence (P33261 whole entry): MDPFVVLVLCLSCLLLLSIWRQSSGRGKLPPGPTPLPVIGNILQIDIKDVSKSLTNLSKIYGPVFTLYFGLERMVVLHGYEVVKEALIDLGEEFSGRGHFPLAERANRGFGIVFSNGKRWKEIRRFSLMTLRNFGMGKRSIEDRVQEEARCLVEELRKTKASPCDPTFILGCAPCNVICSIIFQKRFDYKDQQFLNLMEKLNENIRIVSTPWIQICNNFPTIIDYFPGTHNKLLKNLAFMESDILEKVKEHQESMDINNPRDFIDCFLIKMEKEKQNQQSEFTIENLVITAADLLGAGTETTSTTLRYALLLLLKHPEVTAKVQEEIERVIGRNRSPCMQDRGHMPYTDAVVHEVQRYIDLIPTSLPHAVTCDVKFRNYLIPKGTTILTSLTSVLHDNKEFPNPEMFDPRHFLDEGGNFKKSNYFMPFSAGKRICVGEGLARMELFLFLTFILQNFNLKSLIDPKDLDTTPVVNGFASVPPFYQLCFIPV
T5 sequence (P08684 whole entry): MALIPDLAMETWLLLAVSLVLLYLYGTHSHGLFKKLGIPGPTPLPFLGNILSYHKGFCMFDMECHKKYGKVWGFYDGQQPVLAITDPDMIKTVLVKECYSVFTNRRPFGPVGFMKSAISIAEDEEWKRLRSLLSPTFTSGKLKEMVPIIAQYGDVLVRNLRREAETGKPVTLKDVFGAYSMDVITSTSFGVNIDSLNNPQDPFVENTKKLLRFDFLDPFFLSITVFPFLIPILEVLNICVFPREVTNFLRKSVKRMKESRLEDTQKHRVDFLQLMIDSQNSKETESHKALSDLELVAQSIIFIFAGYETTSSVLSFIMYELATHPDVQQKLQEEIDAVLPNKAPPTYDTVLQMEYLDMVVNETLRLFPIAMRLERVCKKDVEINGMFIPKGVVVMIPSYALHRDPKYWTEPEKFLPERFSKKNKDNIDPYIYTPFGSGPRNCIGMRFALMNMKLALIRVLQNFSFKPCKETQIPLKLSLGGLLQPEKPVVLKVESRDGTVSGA
T2 sequence (P10635 whole entry): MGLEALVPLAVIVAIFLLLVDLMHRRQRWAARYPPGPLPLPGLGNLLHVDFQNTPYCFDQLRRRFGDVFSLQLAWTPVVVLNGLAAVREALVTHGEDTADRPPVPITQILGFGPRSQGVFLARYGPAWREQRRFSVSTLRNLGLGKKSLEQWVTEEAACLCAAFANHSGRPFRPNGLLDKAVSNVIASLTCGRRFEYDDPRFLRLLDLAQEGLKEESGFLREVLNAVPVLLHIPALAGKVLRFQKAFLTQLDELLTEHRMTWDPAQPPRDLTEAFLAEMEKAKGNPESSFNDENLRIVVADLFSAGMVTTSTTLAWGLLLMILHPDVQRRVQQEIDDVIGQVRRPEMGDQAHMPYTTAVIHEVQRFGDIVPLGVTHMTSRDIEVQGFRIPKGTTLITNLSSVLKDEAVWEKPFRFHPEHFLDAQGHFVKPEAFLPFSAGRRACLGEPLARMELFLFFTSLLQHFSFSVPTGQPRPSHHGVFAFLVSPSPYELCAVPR

Row | SMILES | IC50 [1] [µM] | IC50 [2] [µM] | IC50 [3] [µM] | IC50 [4] [µM] | IC50 [5] [µM] | IC50 [6] [µM] | TGI (MSTO-211H cells; 25mpk QD) [mpk QD TGI = 107.93%] | AUC(0-t) (in vivo; 100 mg/kg) [µM·h] | TGI (MSTO-211H cells; 50mpk QD) | AUC(0-t) (in vivo; 200 mg/kg) [µM·h] | Cmax (in vivo; 200 mg/kg) [µM] | TGI (MSTO-211H cells; 150mpk QD)
1 | CP(C)(=O)c1ccc2c(c1)c1ccccc1n2-c1ccc(C(F)(F)F)cc1 [Example 1] | > 10 | > 10 | > 10 | > 10 | > 10 |  |  |  |  |  |  | 
2 | CP(C)(=O)c1ccc2c(c1)c1cccnc1n2-c1ccc(C(F)(F)F)cc1 [Example 5] |  |  |  |  |  | > 5 |  |  |  |  |  | 
3 | CP(C)(=O)c1ccc2c(Oc3ccc(C(F)(F)F)cc3)cccc2c1 [Example 7] | > 10 | > 10 | > 10 | > 10 | > 10 |  | 25 | 2830 |  |  |  | 
4 | Cn1cnc(-c2cc(P(C)(C)=O)cnc2Nc2ccc(C(F)(F)F)cc2)c1 [Example 8] | > 10 | > 10 | > 10 | > 10 | > 10 |  |  |  | 50mpk QD TGI = 104.28% | 2430 |  | 
5 | CP(C)(=O)c1ccc(Nc2ccc(C(F)(F)F)cc2)c(-c2ccccn2)c1 [Example 10] |  |  |  |  |  | > 1.25 |  |  |  | 3380 | 148 | 
6 | CP(C)(=O)c1ccc(Nc2ccc(C(F)(F)F)cc2)c(-c2ncccn2)c1 [Example 12] |  |  |  |  |  | > 20 |  |  |  |  |  | 
7 | Cn1cnc(-c2cc(P(C)(C)=O)ccc2Nc2ccc(C(F)(F)F)cc2)c1 [Example 14] | > 10 | > 10 | > 10 | > 10 | > 10 |  |  |  | 50mpk QD TGI = 100.43% | 3140 | 141 | 150mpk QD TGI = 118.27%
8 | CP(C)(=O)c1cnc(Nc2ccc(C(F)(F)F)cc2)c(-c2cn3c(n2)CCC3)c1 [Example 22] | > 10 | > 10 | > 10 | > 10 | > 10 |  |  |  |  | 2520 |  | 150mpk QD TGI = 102.62%
